Two compounds from publication PMC3371734 (The Journal of Experimental Medicine, 2012) can be followed below.

The target in assay [1] is T1, α3 GlyR (Rattus norvegicus, UniProt P24524).
T1 sequence (P24524 34-464): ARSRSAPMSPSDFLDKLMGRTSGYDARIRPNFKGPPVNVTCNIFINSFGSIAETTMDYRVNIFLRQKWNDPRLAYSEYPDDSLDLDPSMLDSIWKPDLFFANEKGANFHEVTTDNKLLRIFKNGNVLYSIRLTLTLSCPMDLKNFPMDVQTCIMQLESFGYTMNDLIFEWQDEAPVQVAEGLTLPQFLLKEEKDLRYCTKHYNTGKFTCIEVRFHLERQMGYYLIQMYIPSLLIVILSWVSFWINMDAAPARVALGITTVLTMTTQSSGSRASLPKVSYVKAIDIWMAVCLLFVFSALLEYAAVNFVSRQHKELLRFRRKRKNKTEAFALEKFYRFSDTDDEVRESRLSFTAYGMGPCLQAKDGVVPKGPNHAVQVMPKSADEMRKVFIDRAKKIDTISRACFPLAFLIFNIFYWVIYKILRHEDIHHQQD
The assay is described as follows: whole-cell patch clamp, glycine currents. The format is cell-based. (The patch-clamp technique gives a direct electrical read-out from membranes.)

Assay [2] has as its target T1, α3 GlyR. The assay is described as follows: whole-cell patch clamp, potentiation of glycine current. The format is cell-based. Particulars: HEK 293 cells, allosteric potentiator, sustained application.

Take `NCC(=O)O` [glycine]: in assay [1], the EC50 (commonly the concentration giving half of the maximal effect) was determined as 377 ± 45 µM.

For the compound `C=C(C)[C@@H]1CCC(C)=C[C@H]1c1c(O)cc(CCCCC)cc1O` [CBD, cannabidiol], the “% potentiation at 1 μM” value in assay [2] was 491 ± 101%.
